Type in all cases: cell-based, human
Assay [1] relates to p-ERK in AGS cells (KRAS G12D mutation). The assay is described as follows: Cell p-ERK assay (HTRF, Advance ERK phospho-T202/Y204 kit). The following applies: AGS cells, 3 hours incubation with compound, HTRF, read-out: AGS p-ERK IC50. An outline of the steps:
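AGS cells (endogenous KRAS G12D) seeded at ~20000 cells/well overnight, then treated 3 h with 3.16-fold compound dilutions, 0.1% DMSO final. Lysates assayed for phospho-T202/Y204 ERK by HTRF after 4 h antibody incubation; inhibition vs DMSO and blank, IC50 by four-parameter fit.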

A further assay relates to AGS cells (KRAS G12D). The assay is described as follows: Cell proliferation inhibition assay, 3D, CellTiter-Glo 3D, AGS. Conditions: AGS 3D sphere model, 5 days incubation. An outline of the steps: (§1)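 Spheroids (800 AsPC-1 or 400 AGS cells/well; RPMI-1640 or F-12K with 10% FBS) formed overnight, then were dosed on day 2 with a 3.16-fold series at 0.1% DMSO. After 5 days, viability was read by CellTiter-Glo 3D luminescence, and IC50 came from four-parameter fits of inhibition versus DMSO control and medium blank.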

The test system of assay [2] is AsPC-1 cells (KRAS G12D mutation). In words: Cell proliferation inhibition assay, 3D, CellTiter-Glo 3D, AsPC-1. The following applies: AsPC-1 3D sphere model, 5 days incubation. The method in brief: as §1
Background: In ATP-based viability assays light output follows the ATP content of the culture.

Each structure is given as a SMILES string. Like-named read-outs stand apart in the source and are kept apart here.

As for `C#Cc1c(F)ccc2cccc(-c3nc4c5c(nc(OCC67CC(=C)CN6CCC7=C)nc5c3F)N3C[C@H]5CC[C@H](N5)[C@H]3[C@H](C)O4)c12` (stereo partly drawn) [Example Z610, (5S,5aS,6S,9R)-12-((1,6-dimethylenetetrahydro-1H-pyrrolizin-7a (5H)-yl)methoxy)-2-(8-ethynyl-7-fluoronaphthalen-1-yl)-1-fluoro-5-methyl-5a,6,7,8,9,10-hexahydro-5H-4-oxa-3,10a, 11,13,14-pentaaza-6,9-methanonaphtho[1,8-ab]heptalene], the IC50 in assay [1] (Homo sapiens) worked out at 17.2 nM; in the assay on AGS cells (KRAS G12D) (Homo sapiens, 120 h), 18.6 nM; in assay [2] (Homo sapiens, ASPC1, 120 h), 42.3 nM.

On to `C#Cc1c(F)ccc2cccc(-c3nc4c5c(nc(OCC67CC(=C)CN6C[C@@H](OC)C7)nc5c3F)N3C[C@H]5CC[C@H](N5)[C@H]3[C@H](C)O4)c12` (stereo partly drawn) [Example Z692, (5S,5aS,6S,9R)-2-(8-ethynyl-7-fluoronaphthalen-1-yl)-1-fluoro-12-(((2S)-2-methoxy-6-methylenetetrahydro-1H-pyrrolizin-7a (5H)-yl)methoxy)-5-methyl-5a,6,7,8,9,10-hexahydro-5H-4-oxa-3,10a,11,13,14-pentaaza-6,9-methanonaphtho[1,8-ab]heptalene], for which the IC50 was 188 nM in assay [1] (Homo sapiens); 378 nM in the assay with AGS cells (KRAS G12D) (Homo sapiens, 120 h); 290 nM in assay [2] (Homo sapiens, ASPC1, 120 h).

With `C#Cc1cccc2cc(N)cc(-c3nc4c5c(nc(OCC6(CN(C)CC(F)(F)F)CC6)nc5c3F)N3C[C@H]5CC[C@H](N5)[C@H]3[C@H](C)O4)c12` [Example Z714, 5-Ethynyl-4-((5S,5aS,6S,9R)-1-Fluoro-5-Methyl-12-((1-((Methyl(2,2,2-Trifluoroethyl)Amino)Methyl)Cyclopropyl)Methoxy)-5a,6,7,8,9,10-Hexahydro-5H-4-Oxa-3,10a,11,13,14-Pentaaza-6,9-Methanonaphtho[1,8-Ab]Heptalen-2-Yl) Naphthalen-2-Amine], the IC50 worked out at 622 nM in assay [1] (Homo sapiens); 673 nM with AGS cells (KRAS G12D) (Homo sapiens, 120 h); 815 nM in assay [2] (Homo sapiens, ASPC1, 120 h).

With `C#Cc1c(F)ccc2cccc(-c3nc4c5c(nc(OC[C@]67CC(=C)CN6CC[C@@H]7OC)nc5c3F)N3C[C@H]5CC[C@H](N5)[C@H]3[C@H](C)O4)c12` (single isomer, unassigned) [Example Z695], the IC50 in assay [1] amounted to 4.71 nM; in the assay with AGS cells (KRAS G12D), 36.1 nM; in assay [2], 77.7 nM.

Regarding `C#Cc1c(F)ccc2cccc(-c3nc4c5c(nc(OCC67CCCN6CCC7=CF)nc5c3F)N3C[C@H]5CC[C@H](N5)[C@H]3[C@H](C)O4)c12` (stereo partly drawn) [Example Z611, (5S,5aS,68,9R)-2-(8-ethynyl-7-fluoronaphthalen-1-yl)-1-fluoro-12-((1-(fluoromethylene)tetrahydro-1H-pyrrolizin-7a (5H)-yl)methoxy)-5-methyl-5a,6,7,8,9,10-hexahydro-5H-4-oxa-3,10a,11,13,14-pentaaza-6,9-methanonaphtho[1,8-ab]heptalene], the IC50 was found to be 19.6 nM in assay [1] (Homo sapiens); 10.4 nM in the assay on AGS cells (KRAS G12D) (Homo sapiens, 120 h); 49.1 nM in assay [2] (Homo sapiens, ASPC1, 120 h).

As for `C#Cc1c(F)ccc2cccc(-c3nc4c5c(nc(OCC67CC(=C)CN6[C@@H]6C[C@@H]6C7)nc5c3F)N3C[C@H]5CC[C@H](N5)[C@H]3[C@H](C)O4)c12` (stereo partly drawn) [Example Z603, (5S,5aS,6S,9R)-2-(8-Ethynyl-7-Fluoronaphthalen-1-Yl)-1-Fluoro-5-Methyl-12-(((1aR,6aR)-4-Methylenehexahydrocyclopropa[b]Pyrrolizin-5a (3H)-Yl)Methoxy)-5a,6,7,8,9,10-Hexahydro-5H-4-Oxa-3,10a,11,13,14-Pentaaza-6,9-Methanonaphtho[1,8-Ab]Heptalene], the IC50 worked out at 64.1 nM in assay [1] (Homo sapiens); 110 nM with AGS cells (KRAS G12D) (Homo sapiens, 120 h); 217 nM in assay [2] (Homo sapiens, ASPC1, 120 h).

`C#Cc1c(F)ccc2cccc(-c3nc4c5c(nc(OCC67CC(=C)CN6C[C@H](F)C7)nc5c3F)N3C[C@H]5CC[C@H](N5)[C@H]3[C@H](C)O4)c12` (stereo partly drawn) [Example Z633, (5S,5aS,6S,9R)-2-(8-ethynyl-7-fluoronaphthalen-1-yl)-1-fluoro-12-(((2R)-2-fluoro-6-methylenetetrahydro-1H-pyrrolizin-7a (5H)-yl)methoxy)-5-methyl-5a,6,7,8,9,10-hexahydro-5H-4-oxa-3,10a,11,13,14-pentaaza-6,9-methanonaphtho[1,8-ab]heptalene]: the IC50 in assay [1] (Homo sapiens) was determined as 14.5 nM; in the assay on AGS cells (KRAS G12D) (Homo sapiens, 120 h), 59 nM; in assay [2] (Homo sapiens, ASPC1, 120 h), 56.7 nM.

For `C#Cc1cccc2nc(N)cc(-c3nc4c5c(nc(OCC67CCCN6CC(F)(F)C7)nc5c3F)N3C[C@H]5CC[C@H](N5)[C@H]3[C@H](C)O4)c12` (stereo partly drawn) [Example Z726, 4-((5S,5aS,6S,9R)-12-((2,2-difluorotetrahydro-1H-pyrrolizin-7a (5H)-yl)methoxy)-1-fluoro-5-methyl-5a,6,7,8,9,10-hexahydro-5H-4-oxa-3,10a, 11,13,14-pentaaza-6,9-methanonaphtho[1,8-ab]heptalene-2-yl)-5-ethynylquinolin-2-amine], the half-inhibitory concentration (IC50) in assay [1] (Homo sapiens) worked out at 78.8 nM; in the assay with AGS cells (KRAS G12D) (Homo sapiens, 120 h), 133 nM; in assay [2] (Homo sapiens, ASPC1, 120 h), 638 nM.

In the case of `C#Cc1cccc2cccc(-c3nc4c5c(nc(OCC67CC(=C)CN6C[C@H](F)C7)nc5c3F)N3C[C@H]5CC[C@H](N5)[C@H]3[C@H](C)O4)c12` (stereo partly drawn) [Example Z678, (5S,5aS,6S,9R)-2-(8-ethynylnaphthalen-1-yl)-1-fluoro-12-(((2R)-2-fluoro-6-methylenetetrahydro-1H-pyrrolizin-7a (5H)-yl)methoxy)-5-methyl-5a,6,7,8,9,10-hexahydro-5H-4-oxa-3,10a, 11, 13,14-pentaaza-6,9-methanonaphtho[1,8-ab]heptalene], the IC50 in assay [1] (Homo sapiens) was found to be 12.4 nM; in the assay with AGS cells (KRAS G12D) (Homo sapiens, 120 h), 100 nM; in assay [2] (Homo sapiens, ASPC1, 120 h), 73.5 nM.

With `C#Cc1c(F)ccc2cc(O)cc(-c3nc4c5c(nc(OC[C@@]67CCCN6C[C@H](F)C7)nc5c3F)N3C[C@H]5CC[C@H](N5)[C@H]3[C@H](C)O4)c12` [Example Z552, 5-ethynyl-6-fluoro-4-((5S,5aS,6S,9R)-1-fluoro-12-(((2R,7aS)-2-fluorotetrahydro-1H-pyrrolizin-7a (5H)-yl)methoxy)-5-methyl-5a,6,7,8,9,10-hexahydro-5H-4-oxa-3,10a,11,13,14-pentaaza-6,9-methanonaphtho[1,8-ab]heptalen-2-yl) naphthalen-2-ol], the IC50 in assay [1] (Homo sapiens) came to 0.67 nM; in the assay with AGS cells (KRAS G12D) (Homo sapiens, 120 h), 0.53 nM; in assay [2] (Homo sapiens, ASPC1, 120 h), 5.77 nM.

As a reminder, the IC50 is the point on the concentration scale where inhibition reaches its midpoint.

Source of the values: US20250186456A1, “PYRIMIDINE-FUSED CYCLIC COMPOUND AND PREPARATION METHOD AND USE THEREOF” (Genfleet Therapeutics (Shanghai) Inc., priority 2021, published 2025).
